Laboratory results as given in paper PMC2199305 (Environmental Health Perspectives, 2007).
Read-outs that look alike come from different tables or passages of the source.

Experiments:
[1] = target: T1, GST-ERR-γ –LBD (human ERR-γ) (Homo sapiens, UniProt P62508); experiment: Competitive receptor binding assay using [3H]BPA as tracer; details: for fold weaker binding affinity for ERR-γ than bisphenol E: ratio of IC50 vs bisphenol E
T1 construct: made in house; host or cells: Escherichia coli BL21α (vector pGEX6P-1)
T1 sequence (P62508 233-457 limits assumed): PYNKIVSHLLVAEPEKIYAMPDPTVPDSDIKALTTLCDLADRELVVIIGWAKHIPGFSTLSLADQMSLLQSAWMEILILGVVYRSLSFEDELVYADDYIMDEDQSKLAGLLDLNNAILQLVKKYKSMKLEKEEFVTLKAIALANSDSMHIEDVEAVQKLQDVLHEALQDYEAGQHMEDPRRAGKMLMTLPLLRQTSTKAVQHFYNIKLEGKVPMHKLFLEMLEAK
Source text: ERR-γ –LBD was amplified from a human kidney cDNA library (Clontech Laboratories, Mountain View, CA, USA) by polymerase chain reaction (PCR) using gene-specific primers and cloned into pGEX6P-1 (Amersham Biosciences, Piscataway, NJ, USA). Glutathione S-transferase (GST)–fused receptor protein expressed in Escherichia coli BL21α was purified on an affinity column of glutathione-sepharose 4B (GE Healthcare BioSciences Co., Piscataway, NJ, USA) to obtain GST-ERR-γ –LBD.
The reaction mixtures were incubated for 2 hr at 4°C and free radioligand was removed with 1% DCC by filtration as described above. Radioactivity was determined on a liquid scintillation counter (TopCount NXT; PerkinElmer Life Sciences Tokyo, Japan). […] Each assay was performed in duplicate and repeated at least three times.

human ERR-γ = target: T2, human ERR-γ (Homo sapiens, UniProt P62508); details: HeLa cells; for inhibition of the inverse agonist (deactivation) activity of 4-OHT: added along with 1.0 μM 4-OHT; for effect on constitutive basal activity of ERR-γ: compound alone
T2 sequence (P62508 1-458): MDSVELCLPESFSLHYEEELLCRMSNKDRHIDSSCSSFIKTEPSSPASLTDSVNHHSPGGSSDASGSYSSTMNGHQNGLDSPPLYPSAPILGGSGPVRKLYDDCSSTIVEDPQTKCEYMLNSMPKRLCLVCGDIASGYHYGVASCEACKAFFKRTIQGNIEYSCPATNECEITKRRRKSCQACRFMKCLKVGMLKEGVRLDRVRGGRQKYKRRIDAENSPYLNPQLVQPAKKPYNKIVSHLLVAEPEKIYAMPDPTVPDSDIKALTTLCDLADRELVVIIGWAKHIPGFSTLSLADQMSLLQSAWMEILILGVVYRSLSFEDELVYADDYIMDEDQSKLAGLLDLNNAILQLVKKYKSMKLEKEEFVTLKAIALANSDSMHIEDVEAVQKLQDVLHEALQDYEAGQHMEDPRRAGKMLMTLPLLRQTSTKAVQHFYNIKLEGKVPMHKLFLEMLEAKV
Method: HeLa cells were maintained in Eagle’s MEM (EMEM; Nissui, Tokyo, Japan) in the presence of 10% (vol/vol) fetal bovine serum at 37°C. For luciferase assays, HeLa cells were seeded at 5 × 10^5 cells/6-cm dish for 24 hr and then transfected with 4 μg of reporter gene (pGL3/3 × ERRE) and 3 μg of ERR-γ expression plasmids (pcDNA3/ERR-γ ) by Lipofectamine Plus reagent (Invitrogen Japan, Tokyo, Japan) according to the manufacturer’s protocol. Approximately 24 hr after transfection, cells were harvested and plated into 96-well plates at 5 × 10^4 cells/well. The cells were then treated with varying doses of chemicals diluted with 1% bovine serum albumin/phosphate-buffered saline (BSA/PBS, vol/vol). […] After 24 hr, luciferase activity was measured with the appropriate reagent using a Luciferase Assay System (Promega, Madison, WI, USA) according to the manufacturer’s instructions. […] Cells treated with 1% BSA/PBS were used as a vehicle control. Each assay was performed in triplicate and repeated at least three times.

GST-ER-α –LBD = target: T3, GST-ER-α –LBD (Homo sapiens, UniProt P03372); experiment: Competitive binding assay using [3H]E2; details: for binding to ER-α (in words): [3H]E2 tracer; for ERR-γ receptor selectivity ER-α (IC50, nM)/ERR-γ (IC50, nM): ratio of IC50 values, ER-α over ERR-γ; for IC50: read-out: Binding affinity for ER-α (IC50)
T3 sequence (P03372 311-547 limits assumed): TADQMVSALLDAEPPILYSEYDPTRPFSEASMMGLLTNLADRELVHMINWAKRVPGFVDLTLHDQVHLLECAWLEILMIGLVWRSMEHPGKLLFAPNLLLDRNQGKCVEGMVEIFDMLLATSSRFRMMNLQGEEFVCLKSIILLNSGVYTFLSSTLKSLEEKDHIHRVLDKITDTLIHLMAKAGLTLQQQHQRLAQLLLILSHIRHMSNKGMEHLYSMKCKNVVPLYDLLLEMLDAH

[2] = read-out: Binding affinity for ERR-γ (IC50)

Row | SMILES | IC50 [1, 2] [nM] | binding to ER-α (in words) (GST-ER-α –LBD) | ERR-γ receptor selectivity ER-α (IC50, nM)/ERR-γ (IC50, nM) (GST-ER-α –LBD) | also measured
1 | CCc1ccc(O)cc1 [4-Ethylphenol, 4-ethylphenol] | 289 ± 45.9 |  |  | 
2 | CC(C)c1ccc(O)cc1 [4-Isopropylphenol, 4-isopropylphenol] |  |  |  | IC50 [1]: 71.1 ± 7.73 nM
3 | CC/C(=C(\c1ccc(O)cc1)c1ccc(OCCN(C)C)cc1)c1ccccc1 [4-OHT, 4-hydroxytamoxifen, reference compound] |  |  |  | deactivation of ERR-γ (inverse agonist activity) (human ERR-γ; 1.0 μM): approximately 0.4 fold
4 | CCC(C)(C)c1ccc(O)cc1 [4-tert-Amylphenol, 4-tert-amylphenol] | 33.2 ± 2.85 | almost completely inactive | Exclusively ERR-γ | 
5 | CC(C)(C)c1ccc(O)cc1 [4-tert-Butylphenol, 4-tert-butylphenol] |  | almost completely inactive |  | 
6 | CC(C)(c1ccccc1)c1ccc(O)cc1 [4-α-Cumylphenol, 2-(4-hydroxyphenyl)-2-phenylpropane] |  |  |  | IC50 (GST-ER-α –LBD): 4770 nM
7 | CC(C)(c1ccc(O)cc1)c1ccc(O)cc1 [BPA, 2,2-bis(4-hydroxyphenyl)propane] |  |  |  | IC50 [1]: 9.78 ± 0.87 nM; inhibition of the binding of [3H]BPA [1]: almost completely inhibits; inhibition of the inverse agonist (deactivation) activity of 4-OHT (human ERR-γ): antagonizes or inhibits the deactivation activity of 4-OHT in a dose-dependent manner; effect on constitutive basal activity of ERR-γ (human ERR-γ): retained a high constitutive basal activity
8 | Oc1ccc(C(c2ccc(O)cc2)(C(F)(F)F)C(F)(F)F)cc1 [Bisphenol AF, 2,2-bis(4-hydroxyphenyl)hexafluoropropane] | 358 ± 30.5 |  |  | inhibition of the inverse agonist (deactivation) activity of 4-OHT (human ERR-γ): inhibited the inverse agonist activity of 4-OHT; effect on constitutive basal activity of ERR-γ (human ERR-γ): retain a high constitutive basal activity
9 | CC(c1ccccc1)(c1ccc(O)cc1)c1ccc(O)cc1 [Bisphenol AP, 4,4′-(1-phenylethylidene)bisphenol] | 123 ± 15.1 |  |  | IC50 (GST-ER-α –LBD): 361 ± 22.6 nM; fold weaker binding affinity for ERR-γ than bisphenol E [1]: approximately 15 fold
10 | CCC(C)(c1ccc(O)cc1)c1ccc(O)cc1 [Bisphenol B, 2,2-bis(4-hydroxyphenyl)butane] | 26.3 ± 2.65 |  | about 9.5 | IC50 (GST-ER-α –LBD): 246 ± 29.7 nM
11 | CC(c1ccc(O)cc1)c1ccc(O)cc1 [Bisphenol E, 2,2-bis(4-hydroxyphenyl)ethane] | 8.14 ± 0.83 | almost completely inactive | Exclusively ERR-γ | inhibition of the inverse agonist (deactivation) activity of 4-OHT (human ERR-γ): inhibited the inverse agonist activity of 4-OHT; effect on constitutive basal activity of ERR-γ (human ERR-γ): retain a high constitutive basal activity
12 | Oc1ccc(Cc2ccc(O)cc2)cc1 [Bisphenol F, bis(4-hydroxyphenyl)methane] | 131 ± 17.9 | almost completely inactive | Exclusively ERR-γ | fold weaker binding affinity for ERR-γ than bisphenol E [1]: approximately 16 fold
